Patent publication US20210338548A1, “Mint Flavor Compositions” (The Procter & Gamble Company, priority 2020, published 2021)

What was measured:
[1] = Expert sensory testing of racemic menthol vs (−)-menthol in toothpaste (CREST Cavity) with standard spearmint flavor; type: in vivo
Method: In separate, unpublished internal experiments, perceptual experiences of racemic menthol are quantified via expert sensory testing. The use of a standard spearmint flavor (minimizing extra menthol contribution) compared racemic menthol to (−)-menthol in a toothpaste formulation (CREST Cavity). There are several sensory observations taken from these experiments. […] These aromatic notes appear during brushing and disappear after 5-10 minutes post expectoration and are more pronounced as concentrations increase.

[2] = Comparison of cooling attributes of (−)-menthol and racemic menthol in toothpaste (CREST Cavity formulation); type: in vivo
Excerpt: The following data helps support the use of racemic menthol to reduce costs of mint flavor compositions herein described. From internal unpublished research, Table B compares replacing (−)-menthol with a racemic menthol in a 1:1 in a toothpaste formulation. Such a direct replacement is not preferred given the reduced cooling profile and olfactory differences; however, a portion of L-menthol is preferably replaced by racemic-menthol to gain cost efficiency while minimizing impact to the overall mint flavor profiles.
Table B is a comparison of attributes between (−)-menthol and racemic menthol in a toothpaste context (using CREST Cavity formulation).
This value represents the concentration of a coolant where 50% of its maximal cooling is observed.

SMILES: CC1CCC(C(C)C)C(O)C1 (racemic) [Racemic Menthol]
- less potent than (−)-menthol for cooling [1]: 25-30%
- Maximum Longevity [2]: Up to 20 minutes
- Potency compared to L-Menthol [2]: ~0.65-0.7x
- Time Point at Maximum Cooling [2]: ~1 min
- Maximum Cooling (0-60 scale) ([2]; 60 = greatest amount of cooling, 0 = least): 35
- EC 50 ([2]; concentration of coolant giving 50% of its maximal cooling): 1,250 to 1,500 parts per million
